Values quoted from earlier work in patent US12458653B2, “Cannabis based therapeutic and method of use” (priority 2018, dated 2025).
Where two headings read alike, the source gives them in different places.

Key:
[1] = tested on: chemotherapy-induced nausea and vomiting; details: versus available anti-emetic regimens
[2] = extensive liver metabolism

CCCCCc1cc(O)c2c(c1)OC(C)(C)[C@@H]1CCC(CO)=C[C@@H]21 [11-OH-THC]
peak concentration in the urine (after 3 hours, smoking approximately 27 mg of Δ9-THC): 77.0 ± 329.7 ng/mL
peak concentration in the urine (within two hours after smoking approximately 27 mg of Δ9-THC in a cigarette): 3.2 to 53.3 ng/mL

CCCCCc1cc(O)c2c(c1)OC(C)(C)[C@@H]1CCC(C)=C[C@@H]21 [Dronabinol]
relief of chemotherapy-induced nausea and vomiting [1]: little relief over available anti-emetic regimens

CCCCCc1cc(O)c2c(c1)OC(C)(C)[C@@H]1CCC(C(=O)O)=C[C@@H]21 [THC—COOH]
peak concentration in the urine (after 4 hours, smoking approximately 27 mg of Δ9-THC): 179.4 ng/mL
urinary excretion half-life (after seven days of monitoring): approximately 30 hours
time THC-COOH is detectable in plasma (after smoking a cigarette containing 16-34 mg of Δ9-THC): 2 to 7 days
urinary excretion half-life (after twelve days of monitoring): 44 to 60 h
initial concentration of THC-COOH in serum (clinical study among 52 volunteers): 14 to 49 ng/mL
THC-COOH detection time (single chronic user): 25 days

CCCCCc1cc(O)c2c(c1)OC(C)(C)[C@@H]1CCC(C)=C[C@@H]21 [Δ9-THC, delta-9 tetrahydrocannabinol]
oral bioavailability of Δ9-THC [2]: 4-12%
half-life (frequent users): 120 to 312 h
half-life (infrequent user): 31.2 h
average plasma clearance rate (men): 14.9 ± 3.7 L/h
plasma clearance rate (naïve cannabis users): approximately 36 L/hour
plasma clearance rate (regular cannabis users): 60 L/h
average plasma clearance rate (women): 11.8 ± 3 L/h
